From patent publication US20150374734A1, “ACTIVATION OF iNKT CELLS” (INSERM (INSTITUT NATIONAL DE LA SANTÉ ET DE LA RECHERCHE …, priority 2013, published 2015)

Tests used:
[1] = system: iNKT cell hybridoma DN32.D3; assay: Ex vivo stimulatory capacity of in vivo α-GalCer-loaded DC subsets on DN32.D3; type: cell-based, mouse; conditions: DCs sorted 2 h after i.v. α-GalCer 2 μg; 24 h co-culture
Procedure: (§1) FIG. 2: CD8α^+ and CD8α^− DCs differ in their ability to activate iNKT cells. A, B and C, Mice were intravenously injected with α-GalCer (2 μg). Two hours later, splenic CD8α^+ and CD8α^− DCs were sorted on the basis of CD11c, CD11b and CD8 expression (A) and co-cultured with sorted NKT cells (B) or with the α-GalCer-responsive IL-2-producing iNKT cell hybridoma DN32.D3 as a readout of Ag presentation (C). B and C, Cytokine production was quantified by ELISA. Results represent the mean±SD of four experiments. D, CD1d expression on CD8α^+ and CD8α^− DCs was assessed by flow cytometry. The staining with the isotype control was identical on both DC subsets. […] E, Recipient mice were intravenously injected with Cy5-conjugated, or unconjugated as a control, α-GalCer (20 μg) and Cy5 incorporation by CD8α^+ DCs (grey) and CD8α^− DCs (black) was analyzed by flow cytometry 2 h later. […]
(§2) To assess the capacity of DCs to bind/uptake PLGA-based NPs, bone marrow-derived DCs (BM-DCs) (5×10^5 cells/well)^32 or spleen mononuclear cells (MNCs) (1×10^6 cells/well) were exposed with AlexaFluor647-labelled particles (10 μg/ml and 100 μg/ml, respectively) during 2 h at 37° C. After extensive washes, BM-DC (CD11c^+ DEC205^+/−) and spleen CD8α^+ and CD8α^− DCs were analysed by flow cytometry. […] Production of IFN-γ, IL-4 and IL-2 was measured in the culture supernatants by ELISA (R&D systems).

splenic iNKT cells [2] = assay: iNKT cell recall response / anergy in vivo; set-up: species or system mouse
Procedure: (§3) FIG. 1: DCs are crucial for iNKT cell primo-activation and for the prevention of iNKT cell anergy. (A) Transgenic CD11c.DTR mice were injected with PBS or DT 24 h before α-GalCer inoculation (100 ng/mouse). (B) Spleen DCs were sorted on the basis of CD11c expression and sensitized for 2 h with α-GalCer (25 ng/ml). Mice were then injected with α-GalCer-sensitized DCs or free α-GalCer (100 ng/mouse). A and B, Mice were euthanized 3 h after α-GalCer (A and B) or DC/α-GalCer (B) inoculation (primo-activation, grey) or received a second intravenous injection of α-GalCer (100 ng/mouse) 7 days later (recall response, black). In these later groups, animals were sacrificed 3 h after α-GalCer challenge. Splenic iNKT cells were then analysed for intracellular IFN-γ production. A representative experiment out of two (A) or three (B) is shown (mean±SD) (n=4). ** p<0.01, * p<0.05 (unpaired Student's t test).
FIG. 5: Targeting α-GalCer into CD8α^+ DCs prevents iNKT cell anergy in vivo. Mice were intravenously injected with PBS, free α-GalCer (100 ng/mouse) or α-GalCer encapsulated into NP/DEC205 or NP/IgG (5 ng/mouse). A, After 3 h, mice were bled and splenic iNKT cells were screened for intracellular IFN-γ production. The average percentages±SD of iNKT cells positive for IFN-γ are represented (left panel). Production of IL-4 in the sera was quantified by ELISA (right panel). B, Mice received, 7 days later, a second injection of free α-GalCer ([…]) and spleen iNKT cells were screened for intracellular IFN-γ production 3 h later. […] A representative experiment out of two is shown (mean±SD) (n=3) C, The percentage±SD of iNKT cells expressing PD-1 is represented (7 days after α-GalCer stimulation). A representative experiment out of two is shown (n=4). ** p<0.01, * p<0.05 (unpaired Student's t test).
Mice were administrated intravenously with 200 μl of PBS containing 5 ng of free (or 100 ng as a control) or encapsulated α-GalCer. […] Splenic iNKT cells were analysed for intracellular IFN-γ expression and IFN-γ and IL-4 concentrations in the sera were determined by ELISA.

splenic iNKT cells [3] = assay: Primary iNKT cell activation in vivo (intracellular IFN-γ, serum IL-4); set-up: species or system mouse
Procedure: as §3
FIG. 4: Encapsulation of α-GalCer in NP/DEC205 efficiently activates iNKT cells in vivo. Mice were intravenously injected with PBS alone or α-GalCer either in a free soluble form or encapsulated into NP/DEC205 or NP/IgG (5 ng α-GalCer/mouse). […] Production of IL-4 in the sera was quantified by ELISA (right panel) (n=3-8). […] The expression of CD86 (expressed as MFI) by DCs (CD11c^hi) is depicted. […]
FIG. 5: Targeting α-GalCer into CD8α^+ DCs prevents iNKT cell anergy in vivo. […] Production of IL-4 in the sera was quantified by ELISA (right panel). […]
Cells were resuspended in the appropriate combination of Abs to allow identification of DC subsets (anti-CD11c, anti-CD8α, anti-CD11b), iNKT cells (anti-TCRβ, PBS-57-loaded CD1d tetramer), NK cells (anti-CD3ε, anti-NK1.1) or γδ T lymphocytes (anti-TCRγδ, anti-CD3ε). […] Expression of intracellular IFN-γ was analysed as previously described.^32 To measure Cy5-α-GalCer incorporation by splenic DC subsets, mice were intravenously injected with Cy5-conjugated α-GalCer (20 μg) and 2 h later, incorporation of Cy5 by spleen DC subsets was analysed by flow cytometry. […]

sorted hepatic NKT cells = assay: Ex vivo stimulatory capacity of in vivo α-GalCer-loaded DC subsets on NKT cells; type: cell-based, mouse; conditions: DCs sorted 2 h after i.v. α-GalCer 2 μg; 48 h co-culture
Procedure: as §1, §2

CCCCCCCCCCCCCCCCCCCCCCCCCC(=O)N[C@@H](CO[C@H]1O[C@H](CO)[C@H](O)[C@H](O)[C@H]1O)[C@H](O)[C@H](O)CCCCCCCCCCCCCC [α-GalCer, (2S,3S,4R)-1-O-(alpha-D-galactosyl)-N-hexacosanoyl-2-amino-1,3,4-octadecanetriol]
IL-2 production by DN32.D3 co-cultured with DC subsets [1]: CD8α^+ DCs triggered a higher IL-2 production by the iNKT cell hybridoma DN32.D3
PD-1 expression on iNKT cells (splenic iNKT cells [2]; 7 days after α-GalCer stimulation, listed as free α-GalCer): induced enhanced PD-1 expression on iNKT cells
Recall response when DCs lacking at primary stimulation (splenic iNKT cells [2]; CD11c.DTR mice treated with DT, α-GalCer 100 ng/mouse, rechallenge day 7): totally blunted
iNKT cell anergy (IFN-γ recall response) (splenic iNKT cells [2]; second injection of free α-GalCer 100 ng 7 days later, 3 h): induced the expected iNKT cell anergy
Primary iNKT cell activation after DC depletion (splenic iNKT cells [3]; CD11c.DTR mice, DT 24 h before, α-GalCer 100 ng/mouse): strongly lowered the extent of primary iNKT cell activation
Primary iNKT cell activation, low dose in NP/DEC205 vs high dose free (splenic iNKT cells [3]; NP/DEC205 5 ng/mouse, free α-GalCer 100 ng/mouse, 3 h): comparable primary iNKT cell activation
Primary iNKT cell activation, free α-GalCer vs α-GalCer-sensitized DCs (splenic iNKT cells [3]; free 100 ng/mouse, DCs sensitized 2 h with 25 ng/ml, 3 h): triggered a similar primary activation of iNKT cells
Secretion of IFN-γ and IL-4 by NKT cells co-cultured with DC subsets (sorted hepatic NKT cells): CD8α^+ DCs promoted a much stronger secretion of IFN-γ and IL-4
